Assay results as given in US20090137664A1, “SAURURUS CERNUUS COMPOUNDS THAT INHIBIT CELLULAR RESPONSES TO HYPOXIA” (priority 2003, published 2009).

Legend:
PC-3 = assay: NCI in vitro cell line screen (SRB), Prostate Cancer PC-3; assay type: cell-based
Protocol: (§1) For exemplary purposes, an embodiment of the present invention was tested for activity with respect to certain cancer cell lines. The following Tables show results from in vitro 60-cell line antitumor testing from the US National Cancer Institute Developmental Therapeutics Program (NCI-DTP) on compound 2. The testing was in connection with the NCI's In Vitro Cell Line Screening Project (IVCLSP). Detailed information regarding the experiments and their interpretation is available from the NCI.

KM12 = assay: NCI in vitro cell line screen (SRB), Colon Cancer KM12; assay type: cell-based
Protocol: as §1

SF-539 = assay: NCI in vitro cell line screen (SRB), CNS Cancer SF-539; assay type: cell-based
Protocol: as §1

OVCAR-8 = assay: NCI in vitro cell line screen (SRB), Ovarian Cancer OVCAR-8; assay type: cell-based
Protocol: as §1

HIF-1 = assay: pTK-HRE3-luc reporter assay, 1,10-phenanthroline-induced HIF-1 activation in T47D cells; assay type: cell-based; conditions: Homo sapiens, read-out: inhibition of HIF-1 activation by 1,10-phenanthroline, 100 nM
Description: Iron chelators and transition metals (such as cobalt and nickel) can activate HIF-1 and have been used as chemical hypoxia mimetics. […] The expression of the HIF-1α subunit quantitatively determines HIF-1 biological activity (activation of transcription).

MCF7 = assay: NCI in vitro cell line screen (SRB), Breast Cancer MCF7; assay type: cell-based
Protocol: as §1

UO-31 = assay: NCI in vitro cell line screen (SRB), Renal Cancer UO-31; assay type: cell-based
Protocol: as §1

OVCAR-3 = assay: NCI in vitro cell line screen (SRB), Ovarian Cancer OVCAR-3; assay type: cell-based
Protocol: as §1

BT-549 = assay: NCI in vitro cell line screen (SRB), Breast Cancer BT-549; assay type: cell-based
Protocol: as §1

786-0 = assay: NCI in vitro cell line screen (SRB), Renal Cancer 786-0; assay type: cell-based
Protocol: as §1

pGL3 Control = assay: luciferase expression from control plasmid pGL3 Control; assay type: cell-based, human
Protocol: The chemical structures of active compounds 1 and 2 are shown above. Compound 2 is the known compound manassantin B and 1 is a novel compound of the present invention. […] Similar results are obtained from separate experiments. The IC50 is 3 nM for 2 and 30 nM for 1. Complete inhibition is observed at 10 nM for 2 and 100 nM for 1.

IGROV1 = assay: NCI in vitro cell line screen (SRB), Ovarian Cancer IGROV1; assay type: cell-based
Protocol: as §1

[1] = Homo sapiens, read-out: LC50 (the source's name)

Compound: COc1ccc([C@@H](O)[C@@H](C)Oc2ccc([C@H]3O[C@H](c4ccc(O[C@H](C)[C@H](O)c5ccc6c(c5)OCO6)c(OC)c4)[C@H](C)[C@H]3C)cc2OC)cc1OC [Compound 2, manassantin B]
- TGI (PC-3): 1.77E−5 Molar
- GI50 (PC-3; Homo sapiens): 2.37 µM
- CC50 (PC-3; [1]): > 100 µM
- Mean Optical Densities (PC-3; Log10 Concentration −4.0 Molar): 0.152
- Percent Growth (PC-3; Log10 Concentration −4.0 Molar): −30%
- Mean Optical Densities (PC-3; Log10 Concentration −5.0 Molar): 0.268
- Percent Growth (PC-3; Log10 Concentration −5.0 Molar): 10%
- Mean Optical Densities (PC-3; Log10 Concentration −6.0 Molar): 0.588
- Percent Growth (PC-3; Log10 Concentration −6.0 Molar): 74%
- Mean Optical Densities (PC-3; Log10 Concentration −7.0 Molar): 0.668
- Percent Growth (PC-3; Log10 Concentration −7.0 Molar): 90%
- Mean Optical Densities (PC-3; Log10 Concentration −8.0 Molar): 0.665
- Percent Growth (PC-3; Log10 Concentration −8.0 Molar): 89%
- TGI (KM12): >1.00E−4 Molar
- GI50 (KM12; Homo sapiens): 7.78 µM
- CC50 (KM12; [1]): > 100 µM
- Mean Optical Densities (KM12; Log10 Concentration −4.0 Molar): 1.287
- Percent Growth (KM12; Log10 Concentration −4.0 Molar): 50%
- Mean Optical Densities (KM12; Log10 Concentration −5.0 Molar): 1.205
- Percent Growth (KM12; Log10 Concentration −5.0 Molar): 44%
- Mean Optical Densities (KM12; Log10 Concentration −6.0 Molar): 1.983
- Percent Growth (KM12; Log10 Concentration −6.0 Molar): 98%
- Mean Optical Densities (KM12; Log10 Concentration −7.0 Molar): 1.876
- Percent Growth (KM12; Log10 Concentration −7.0 Molar): 90%
- Mean Optical Densities (KM12; Log10 Concentration −8.0 Molar): 1.960
- Percent Growth (KM12; Log10 Concentration −8.0 Molar): 96%
- TGI (SF-539): >1.00E−4 Molar
- GI50 (SF-539; Homo sapiens): 6.28 µM
- CC50 (SF-539; [1]): > 100 µM
- Mean Optical Densities (SF-539; Log10 Concentration −4.0 Molar): 0.535
- Percent Growth (SF-539; Log10 Concentration −4.0 Molar): 21%
- Mean Optical Densities (SF-539; Log10 Concentration −5.0 Molar): 0.629
- Percent Growth (SF-539; Log10 Concentration −5.0 Molar): 41%
- Mean Optical Densities (SF-539; Log10 Concentration −6.0 Molar): 0.848
- Percent Growth (SF-539; Log10 Concentration −6.0 Molar): 87%
- Mean Optical Densities (SF-539; Log10 Concentration −7.0 Molar): 0.914
- Percent Growth (SF-539; Log10 Concentration −7.0 Molar): 101%
- Mean Optical Densities (SF-539; Log10 Concentration −8.0 Molar): 0.880
- Percent Growth (SF-539; Log10 Concentration −8.0 Molar): 94%
- TGI (OVCAR-8): >1.00E−4 Molar
- GI50 (OVCAR-8; Homo sapiens): 23.7 µM
- CC50 (OVCAR-8; [1]): > 100 µM
- Mean Optical Densities (OVCAR-8; Log10 Concentration −4.0 Molar): 0.873
- Percent Growth (OVCAR-8; Log10 Concentration −4.0 Molar): 46%
- Mean Optical Densities (OVCAR-8; Log10 Concentration −5.0 Molar): 0.952
- Percent Growth (OVCAR-8; Log10 Concentration −5.0 Molar): 53%
- Mean Optical Densities (OVCAR-8; Log10 Concentration −6.0 Molar): 1.298
- Percent Growth (OVCAR-8; Log10 Concentration −6.0 Molar): 82%
- Mean Optical Densities (OVCAR-8; Log10 Concentration −7.0 Molar): 1.092
- Percent Growth (OVCAR-8; Log10 Concentration −7.0 Molar): 65%
- Mean Optical Densities (OVCAR-8; Log10 Concentration −8.0 Molar): 1.311
- Percent Growth (OVCAR-8; Log10 Concentration −8.0 Molar): 83%
- inhibition at 0.1 µM (HIF-1): 44%
- TGI (MCF7): 9.51E−6 Molar
- GI50 (MCF7; Homo sapiens): 0.36 µM
- CC50 (MCF7; [1]): > 100 µM
- Mean Optical Densities (MCF7; Log10 Concentration −4.0 Molar): 0.191
- Percent Growth (MCF7; Log10 Concentration −4.0 Molar): −40%
- Mean Optical Densities (MCF7; Log10 Concentration −5.0 Molar): 0.316
- Percent Growth (MCF7; Log10 Concentration −5.0 Molar): −1%
- Mean Optical Densities (MCF7; Log10 Concentration −6.0 Molar): 0.758
- Percent Growth (MCF7; Log10 Concentration −6.0 Molar): 42%
- Mean Optical Densities (MCF7; Log10 Concentration −7.0 Molar): 0.937
- Percent Growth (MCF7; Log10 Concentration −7.0 Molar): 60%
- Mean Optical Densities (MCF7; Log10 Concentration −8.0 Molar): 0.959
- Percent Growth (MCF7; Log10 Concentration −8.0 Molar): 62%
- TGI (UO-31): >1.00E−4 Molar
- GI50 (UO-31; Homo sapiens): 3.9 µM
- CC50 (UO-31; [1]): > 100 µM
- Mean Optical Densities (UO-31; Log10 Concentration −4.0 Molar): 0.786
- Percent Growth (UO-31; Log10 Concentration −4.0 Molar): 33%
- Mean Optical Densities (UO-31; Log10 Concentration −5.0 Molar): 0.841
- Percent Growth (UO-31; Log10 Concentration −5.0 Molar): 39%
- Mean Optical Densities (UO-31; Log10 Concentration −6.0 Molar): 1.102
- Percent Growth (UO-31; Log10 Concentration −6.0 Molar): 66%
- Mean Optical Densities (UO-31; Log10 Concentration −7.0 Molar): 1.189
- Percent Growth (UO-31; Log10 Concentration −7.0 Molar): 75%
- Mean Optical Densities (UO-31; Log10 Concentration −8.0 Molar): 1.250
- Percent Growth (UO-31; Log10 Concentration −8.0 Molar): 81%
- TGI (OVCAR-3): 4.32E−6 Molar
- GI50 (OVCAR-3; Homo sapiens): 0.627 µM
- CC50 (OVCAR-3; [1]): > 100 µM
- Mean Optical Densities (OVCAR-3; Log10 Concentration −4.0 Molar): 0.367
- Percent Growth (OVCAR-3; Log10 Concentration −4.0 Molar): −36%
- Mean Optical Densities (OVCAR-3; Log10 Concentration −5.0 Molar): 0.465
- Percent Growth (OVCAR-3; Log10 Concentration −5.0 Molar): −19%
- Mean Optical Densities (OVCAR-3; Log10 Concentration −6.0 Molar): 0.616
- Percent Growth (OVCAR-3; Log10 Concentration −6.0 Molar): 33%
- Mean Optical Densities (OVCAR-3; Log10 Concentration −7.0 Molar): 0.722
- Percent Growth (OVCAR-3; Log10 Concentration −7.0 Molar): 117%
- Mean Optical Densities (OVCAR-3; Log10 Concentration −8.0 Molar): 0.679
- Percent Growth (OVCAR-3; Log10 Concentration −8.0 Molar): 83%
- TGI (BT-549): 1.32E−5 Molar
- GI50 (BT-549; Homo sapiens): 1.07 µM
- CC50 (BT-549; [1]): > 100 µM
- Mean Optical Densities (BT-549; Log10 Concentration −4.0 Molar): 0.474
- Percent Growth (BT-549; Log10 Concentration −4.0 Molar): −22%
- Mean Optical Densities (BT-549; Log10 Concentration −5.0 Molar): 0.620
- Percent Growth (BT-549; Log10 Concentration −5.0 Molar): 3%
- Mean Optical Densities (BT-549; Log10 Concentration −6.0 Molar): 0.813
- Percent Growth (BT-549; Log10 Concentration −6.0 Molar): 51%
- Mean Optical Densities (BT-549; Log10 Concentration −7.0 Molar): 0.868
- Percent Growth (BT-549; Log10 Concentration −7.0 Molar): 65%
- Mean Optical Densities (BT-549; Log10 Concentration −8.0 Molar): 0.838
- Percent Growth (BT-549; Log10 Concentration −8.0 Molar): 58%
- TGI (786-0): >1.00E−4 Molar
- GI50 (786-0; Homo sapiens): 7.74 µM
- CC50 (786-0; [1]): > 100 µM
- Mean Optical Densities (786-0; Log10 Concentration −4.0 Molar): 0.806
- Percent Growth (786-0; Log10 Concentration −4.0 Molar): 38%
- Mean Optical Densities (786-0; Log10 Concentration −5.0 Molar): 0.888
- Percent Growth (786-0; Log10 Concentration −5.0 Molar): 46%
- Mean Optical Densities (786-0; Log10 Concentration −6.0 Molar): 1.309
- Percent Growth (786-0; Log10 Concentration −6.0 Molar): 84%
- Mean Optical Densities (786-0; Log10 Concentration −7.0 Molar): 1.361
- Percent Growth (786-0; Log10 Concentration −7.0 Molar): 89%
- Mean Optical Densities (786-0; Log10 Concentration −8.0 Molar): 1.398
- Percent Growth (786-0; Log10 Concentration −8.0 Molar): 92%
- luciferase expression from the pGL3-Control plasmid (pGL3 Control; 1,10-phenanthroline experiment (FIG. 5)): Neither compound exerts significant effect
- luciferase expression from the control plasmid (pGL3 Control) (pGL3 Control; hypoxia experiment (FIG. 3)): No statistically significant difference
- TGI (IGROV1): >1.00E−4 Molar
- GI50 (IGROV1; Homo sapiens, IGROV-1): 14 µM
- CC50 (IGROV1; Homo sapiens, IGROV-1, read-out: LC50 (the source's name)): > 100 µM
- Mean Optical Densities (IGROV1; Log10 Concentration −4.0 Molar): 0.336
- Percent Growth (IGROV1; Log10 Concentration −4.0 Molar): 13%
- Mean Optical Densities (IGROV1; Log10 Concentration −5.0 Molar): 0.500
- Percent Growth (IGROV1; Log10 Concentration −5.0 Molar): 56%
- Mean Optical Densities (IGROV1; Log10 Concentration −6.0 Molar): 0.674
- Percent Growth (IGROV1; Log10 Concentration −6.0 Molar): 102%
- Mean Optical Densities (IGROV1; Log10 Concentration −7.0 Molar): 0.674
- Percent Growth (IGROV1; Log10 Concentration −7.0 Molar): 102%
- Mean Optical Densities (IGROV1; Log10 Concentration −8.0 Molar): 0.721
- Percent Growth (IGROV1; Log10 Concentration −8.0 Molar): 114%
